Reference: ChEMBL document CHEMBL3885861, “Open TG-GATES”

Species on record: Rattus norvegicus
Experiment: Open TG-GATES - Regimen: Daily Repeat
Format: toxicity, organism-based, Sprague-Dawley
Parameters: regimen Daily Repeat, gender Male, age 6 weeks
Conditions: in vivo, po, route gavage; for ALT / AST / BUN / CRE / Ca / Cl / DBIL / GLC / IP / K / LDH / Na / PL / RALB / TBIL / TC / TG / TP / gamma-GTP / A/G / ALP: tissue Plasma; for APTT / Bas / Eos / Fbg / Hb / Ht / Lym / MCH / MCHC / MCV / Mono / Neu / PT / Plat / RBC / Ret / WBC: tissue Blood; for KIDNEY_L / KIDNEY_R / KIDNEY_TOTAL: tissue Kidney; for LIVER: tissue Liver
[1] = 30 mg/kg, […], dose level Low, time 14 day
[2] = 30 mg/kg, […], dose level Low, time 28 day
[3] = 100 mg/kg, 72 h, dose level Middle, time 3 day
[4] = 100 mg/kg, […], dose level Middle, time 7 day
[5] = 100 mg/kg, […], dose level Middle, time 14 day
[6] = 100 mg/kg, […], dose level Middle, time 28 day
[7] = 300 mg/kg, 72 h, dose level High, time 3 day
[8] = 300 mg/kg, […], dose level High, time 7 day
[9] = 300 mg/kg, […], dose level High, time 14 day

## CCc1cc(C(N)=S)ccn1 [ETHIONAMIDE]
[1]
  ALT: 34.8 IU/L
  AST: 62.4 IU/L
  BUN: 17.6 mg/dL
  CRE: 0.5 mg/dL
  Ca: 10.8 mg/dL
  Cl: 104.4 meq/L
  DBIL: 0.026 mg/dL
  GLC: 206.6 mg/dL
  IP: 7.2 mg/dL
  K: 4.4 meq/L
  LDH: 95.4 IU/L
  Na: 142.2 meq/L
  PL: 152.2 mg/dL
  RALB: 4.1 g/dL
  TBIL: 0.3 mg/dL
  TC: 70.4 mg/dL
  TG: 107.6 mg/dL
  TP: 5.9 g/dL
  gamma-GTP: 1.8 IU/L
[2]
  A/G: 2.2
  ALP: 680.6 IU/L
  ALT: 35.8 IU/L
  AST: 60 IU/L
  BUN: 21.2 mg/dL
  CRE: 0.7 mg/dL
  Ca: 10.1 mg/dL
  Cl: 106 meq/L
  DBIL: 0.022 mg/dL
  GLC: 198.8 mg/dL
  IP: 6.3 mg/dL
  K: 4.6 meq/L
  LDH: 95.2 IU/L
  Na: 140.4 meq/L
  PL: 143.8 mg/dL
  RALB: 4.1 g/dL
  TBIL: 0.3 mg/dL
  TC: 71.4 mg/dL
  TG: 129 mg/dL
  TP: 6 g/dL
  gamma-GTP: 1.6 IU/L
[3]
  TERMINAL_BW: 233.1 g
  APTT: 17.5 s
  Bas: 0%
  Eos: 1%
  Fbg: 209 mg/dL
  Hb: 14.5 g/dL
  Ht: 42.6%
  Lym: 67%
  MCH: 21.7 pg
  MCHC: 33.9%
  MCV: 64 fL
  Mono: 10.8%
  Neu: 21.6%
  PT: 11.6 s
  Plat: 130 x10_4/uL
  RBC: 666.2 x10_4/ul
  Ret: 10.3%
  WBC: 119.1 x10_2/uL
  KIDNEY_L: 1.1 g
  KIDNEY_R: 1.1 g
  KIDNEY_TOTAL: 2.2 g
  LIVER: 12.4 g
  A/G: 2
  ALP: 951.2 IU/L
  ALT: 41.6 IU/L
  AST: 65.6 IU/L
  BUN: 17.4 mg/dL
  CRE: 0.5 mg/dL
  Ca: 10.5 mg/dL
  Cl: 104.2 meq/L
  DBIL: 0.032 mg/dL
  GLC: 197.6 mg/dL
  IP: 7.1 mg/dL
  K: 4.7 meq/L
  LDH: 94.2 IU/L
  Na: 140.8 meq/L
  PL: 125 mg/dL
  RALB: 3.6 g/dL
  TBIL: 0.2 mg/dL
  TC: 65.4 mg/dL
  TG: 59.2 mg/dL
  TP: 5.4 g/dL
  gamma-GTP: 1 IU/L
[4]
  TERMINAL_BW: 267.6 g
  APTT: 17 s
  Bas: 0%
  Eos: 1%
  Fbg: 212 mg/dL
  Hb: 14.2 g/dL
  Ht: 42.3%
  Lym: 68.6%
  MCH: 20.9 pg
  MCHC: 33.7%
  MCV: 62.1 fL
  Mono: 8.6%
  Neu: 21.6%
  PT: 11.7 s
  Plat: 148.8 x10_4/uL
  RBC: 681.8 x10_4/ul
  Ret: 3.6%
  WBC: 136.5 x10_2/uL
  KIDNEY_L: 1.1 g
  KIDNEY_R: 1.2 g
  KIDNEY_TOTAL: 2.4 g
  LIVER: 13.1 g
  A/G: 1.8
  ALP: 899 IU/L
  ALT: 40.8 IU/L
  AST: 66.8 IU/L
  BUN: 15.8 mg/dL
  CRE: 0.4 mg/dL
  Ca: 10.4 mg/dL
  Cl: 104 meq/L
  DBIL: 0.088 mg/dL
  GLC: 194.8 mg/dL
  IP: 6.7 mg/dL
  K: 4.6 meq/L
  LDH: 106.2 IU/L
  Na: 139.8 meq/L
  PL: 122.2 mg/dL
  RALB: 3.7 g/dL
  TBIL: 0.3 mg/dL
  TC: 62 mg/dL
  TG: 52.2 mg/dL
  TP: 5.7 g/dL
  gamma-GTP: 2.4 IU/L
[5]
  TERMINAL_BW: 316.7 g
  APTT: 17.7 s
  Bas: 0%
  Eos: 1.4%
  Fbg: 221 mg/dL
  Hb: 15.2 g/dL
  Ht: 44.6%
  Lym: 63.8%
  MCH: 21.4 pg
  MCHC: 34.2%
  MCV: 62.6 fL
  Mono: 4.4%
  Neu: 30.4%
  PT: 11.8 s
  Plat: 131.1 x10_4/uL
  RBC: 712 x10_4/ul
  Ret: 4.9%
  WBC: 203.6 x10_2/uL
  KIDNEY_L: 1.4 g
  KIDNEY_R: 1.4 g
  KIDNEY_TOTAL: 2.8 g
  LIVER: 16 g
  A/G: 2.6
  ALP: 878.4 IU/L
  ALT: 33.8 IU/L
  AST: 58.8 IU/L
  BUN: 16.8 mg/dL
  CRE: 0.5 mg/dL
  Ca: 10.5 mg/dL
  Cl: 105 meq/L
  DBIL: 0.034 mg/dL
  GLC: 196.8 mg/dL
  IP: 6.6 mg/dL
  K: 4.4 meq/L
  LDH: 82 IU/L
  Na: 142.2 meq/L
  PL: 125.2 mg/dL
  RALB: 4.2 g/dL
  TBIL: 0.3 mg/dL
  TC: 60.6 mg/dL
  TG: 65.8 mg/dL
  TP: 5.8 g/dL
  gamma-GTP: 1.4 IU/L
[6]
  TERMINAL_BW: 405.2 g
  APTT: 16.9 s
  Bas: 0%
  Eos: 1.6%
  Fbg: 228.4 mg/dL
  Hb: 15.9 g/dL
  Ht: 46.2%
  Lym: 72.4%
  MCH: 20.4 pg
  MCHC: 34.4%
  MCV: 59.3 fL
  Mono: 4.8%
  Neu: 21.2%
  PT: 11.7 s
  Plat: 140.7 x10_4/uL
  RBC: 780.4 x10_4/ul
  Ret: 7.8%
  WBC: 170.4 x10_2/uL
  KIDNEY_L: 1.6 g
  KIDNEY_R: 1.6 g
  KIDNEY_TOTAL: 3.2 g
  LIVER: 18.7 g
  A/G: 2.1
  ALP: 579.4 IU/L
  ALT: 39.4 IU/L
  AST: 56 IU/L
  BUN: 19 mg/dL
  CRE: 0.6 mg/dL
  Ca: 9.9 mg/dL
  Cl: 104.4 meq/L
  DBIL: 0.016 mg/dL
  GLC: 196 mg/dL
  IP: 5.9 mg/dL
  K: 4.6 meq/L
  LDH: 86.2 IU/L
  Na: 140 meq/L
  PL: 121.6 mg/dL
  RALB: 4.2 g/dL
  TBIL: 0.3 mg/dL
  TC: 62.4 mg/dL
  TG: 60.4 mg/dL
  TP: 6.2 g/dL
  gamma-GTP: 1.8 IU/L
[7]
  TERMINAL_BW: 204.1 g
  APTT: 20 s
  Bas: 0%
  Eos: 1.4%
  Fbg: 161.6 mg/dL
  Hb: 17.1 g/dL
  Ht: 50.4%
  Lym: 59.8%
  MCH: 21.7 pg
  MCHC: 34.1%
  MCV: 63.5 fL
  Mono: 6.4%
  Neu: 32.6%
  PT: 16 s
  Plat: 119.1 x10_4/uL
  RBC: 794.4 x10_4/ul
  Ret: 13.3%
  WBC: 115.4 x10_2/uL
  KIDNEY_L: 1 g
  KIDNEY_R: 1 g
  KIDNEY_TOTAL: 2 g
  LIVER: 10.3 g
  A/G: 2.3
  ALP: 1108.2 IU/L
  ALT: 72.6 IU/L
  AST: 190.6 IU/L
  BUN: 12.2 mg/dL
  CRE: 0.5 mg/dL
  Ca: 9.7 mg/dL
  Cl: 106.2 meq/L
  DBIL: 0.1 mg/dL
  GLC: 172.6 mg/dL
  IP: 7.6 mg/dL
  K: 4.6 meq/L
  LDH: 244 IU/L
  Na: 139.4 meq/L
  PL: 82.8 mg/dL
  RALB: 3.4 g/dL
  TBIL: 0.3 mg/dL
  TC: 46.4 mg/dL
  TG: 16 mg/dL
  TP: 4.9 g/dL
  gamma-GTP: 1.4 IU/L
[8]
  TERMINAL_BW: 227.8 g
  APTT: 21.4 s
  Bas: 0.3%
  Eos: 3.7%
  Fbg: 206 mg/dL
  Hb: 16 g/dL
  Ht: 46.9%
  Lym: 44.7%
  MCH: 20.2 pg
  MCHC: 34.1%
  MCV: 59.2 fL
  Mono: 9%
  Neu: 42%
  PT: 14.7 s
  Plat: 109.9 x10_4/uL
  RBC: 792.3 x10_4/ul
  Ret: 2.8%
  WBC: 127.9 x10_2/uL
  KIDNEY_L: 1 g
  KIDNEY_R: 1 g
  KIDNEY_TOTAL: 2.1 g
  LIVER: 11.3 g
  A/G: 1.7
  ALP: 739.3 IU/L
  ALT: 66 IU/L
  AST: 129 IU/L
  BUN: 12.7 mg/dL
  CRE: 0.4 mg/dL
  Ca: 10.1 mg/dL
  Cl: 102.3 meq/L
  DBIL: 0.0933 mg/dL
  GLC: 143 mg/dL
  IP: 7.2 mg/dL
  K: 3.9 meq/L
  LDH: 397.7 IU/L
  Na: 136.7 meq/L
  PL: 123.7 mg/dL
  RALB: 3.6 g/dL
  TBIL: 0.3 mg/dL
  TC: 95.3 mg/dL
  TG: 22.3 mg/dL
  TP: 5.7 g/dL
  gamma-GTP: 3.7 IU/L
[9]
  Bas: 0%
  MCHC: 34.2%
  KIDNEY_L: 1 g
  KIDNEY_TOTAL: 2.1 g
  TBIL: 0.3 mg/dL
  gamma-GTP: 7 IU/L
